According to patent US7022311B1, “Powdery inhalational preparations and process for producing the same” (Kaken Pharmaceutical Co., Ltd., priority 1999, dated 2006):
Where a name gives a salt, the structure may show the parent alone. Square brackets hold non-standard residues; d marks the D form. Peptide text beside a SMILES is read from it. d2Nal = N[C@H](Cc1ccc2ccccc2c1)C(=O)O

How the values were obtained:
[1] = Moisture absorption test (hygroscopic properties) of test carriers; format: physicochemical; parameters: key to % Moisture Absorption: x: Not possible to measure (because the samples deliquesced.); conditions: for % Moisture Absorption: 25° C.; for Hygroscopicity, result in words: moisture absorption tests, comparison of carriers
Experimental: For the objective of selecting a material suitable as the carrier for a dry powder inhalation, moisture absorption tests were performed on erythritol, xylitol, lactose, D-mannitol, Amalty, glucose, Stevia, Benecoat and aspartame. […] (Tables 1, 2, and 3)
In order to ascertain that trehalose is a material having properties suitable as a carrier for dry powder inhalations, it was compared to lactose, a well-known carrier for dry powder inhalation. A test was carried out for comparing hygroscopicity. The trehalose used was the product of Asahi Kasei Kogyo KK, and Lactose 325M from the DMV Company. […] (Table 4, 5)

[2] = In vitro lung delivery fraction test with multi-stage cascade impactor (Andersen sampler, Jethaler); format: physicochemical; conditions: Example 11: Pralmorelin dihydrochloride 5.0%, carrier erythritol 93.5%, micronized lactose 1.5%, 28.3 L/min
Experimental: Capsulated preparations (The Japanese Pharmacopeia No. 2 HPMC capsules: manufactured by Shionogi Qualicaps Co., Ltd.) which were filled with about 40 mg each of three dry powder inhalations were prepared and mounted on an inhaler device (Jethaler; Unisia Jecs Corp.) The Jethaler was then attached to the mouthpiece of a cascade impactor (Andersen sampler Model AN-200) and inspired at a flow rate of 28.3 L/min., thereby dispersing the micronized medication in the capsule and measuring the residual active ingredient in the capsule and in the inhaler device as well as the distribution of the active ingredient at each stage with liquid chromatography. It was confirmed that in the in vitro test with cascade impactor, the lung delivery fraction at stages 2–7 corresponding to the respiring fraction differed substantially depending on the different carrier particles.
(§1) Capsulated preparations (The Japanese Pharmacopeia No. 2HPMC capsules: manufactured by Shionogi Qualicaps Co., Ltd.), which were filled with about 40 mg each of three dry powder inhalations, were prepared and mounted on an inhaler device (Jethaler®; Unisia Jecs Corp.). The Jethaler® brand device was then attached to the mouthpiece of a cascade impactor (Andersen sampler; Model AN-200) and inspired at a flow rate of 28.3 L/min., thereby dispersing the dry powder inhalation in the capsule and measuring the residual active ingredient in the capsule and in the inhaler device as well as the distribution of the active ingredient at each stage with liquid chromatography.
(§2) A capsulated preparation (The Japanese Pharmacopeia No. 2HPMC capsules: manufactured by Shionogi Qualicaps Co., Ltd.) which was filled with about 40 mg of the prepared dry powder inhalations was prepared and mounted on an inhaler device (Jethaler; Unisia Jecs Corp.) The Jethaler was then attached to the mouthpiece of a cascade impactor (Andersen sampler; Model AN-200) and inspired at a flow rate of 28.3 L/min., thereby dispersing the dry powder inhalation in the capsule and measuring the residual active ingredient in the capsule and in the inhaler device as well as the distribution of the active ingredient at each stage with liquid chromatography.
as §1, with “A capsulated preparation (The” for “Capsulated preparations (The”, “which was” for “which were”, “mg” for “mg each”, “chromatography. […]” for “chromatography.”
as §2, with “2 HPMC” for “2HPMC”, “Ltd.)” for “Ltd.) which was”, “inhalation” for “inhalations”

[3] = Table 2, Humidity 75%, 24 Hours
[4] = Table 2, Humidity 75%, 48 Hours
[5] = Table 2, Humidity 75%, 72 Hours
[6] = Table 2, Humidity 75%, 168 Hours
[7] = Table 3, Humidity 90%, 16 Hours
[8] = Table 3, Humidity 90%, 24 Hours
[9] = Table 3, Humidity 90%, 48 Hours
[10] = Table 3, Humidity 90%, 72 Hours
[11] = Table 3, Humidity 90%, 168 Hours
[12] = Table 4, Humidity 60%, 24 Hours
[13] = Table 4, Humidity 60%, 72 Hours
[14] = Table 4, Humidity 60%, 168 Hours
[15] = Table 4, Humidity 60%, 366 Hours
[16] = Table 5, Humidity 75%, 48 Hours
[17] = Table 5, Humidity 75%, 72 Hours
[18] = Table 5, Humidity 75%, 168 Hours
[19] = Table 1, Humidity 60%, 24 Hours
[20] = Table 1, Humidity 60%, 72 Hours
[21] = Table 1, Humidity 60%, 168 Hours
[22] = Table 1, Humidity 60%, 366 Hours
[23] = Table 2, Humidity 75%, 336 Hours

For `COC(=O)[C@H](Cc1ccccc1)NC(=O)[C@@H](N)CC(=O)O` [Aspartame] (H-Asp-Phe-OMe), the “% Moisture Absorption” value [1, 3] was 6.539%, the “% Moisture Absorption” value [1, 4] was 10.877% and the “% Moisture Absorption” value [1, 5] was 10.985%. For the same compound, the “% Moisture Absorption” value [1, 6] was 11.163%, the “% Moisture Absorption” value [1, 7] was 10.476% and the “% Moisture Absorption” value [1, 8] was 10.741%. The “% Moisture Absorption” value [1, 9] was 11.448%, the “% Moisture Absorption” value [1, 10] was 11.521% and the “% Moisture Absorption” value [1, 11] was 11.749%.

With `OC[C@H]1O[C@H](O[C@H]2O[C@H](CO)[C@@H](O)[C@H](O)[C@H]2O)[C@H](O)[C@@H](O)[C@@H]1O` [Trehalose] the “% Moisture Absorption” value [1, 12] was 0.000%, the “% Moisture Absorption” value [1, 13] was 0.000% and the “% Moisture Absorption” value [1, 14] was 0.000%. For the same compound, the “% Moisture Absorption” value [1, 15] was 0.000%, the “% Moisture Absorption” value [1, 16] was 0.008% and the “% Moisture Absorption” value [1, 17] was 0.023%. The “% Moisture Absorption” value [1, 18] was 0.020% and the “Hygroscopicity, result in words” value [1] was “only slightly hygroscopic”.

In the case of `OC[C@@H](O)[C@@H](O)CO` [Erythritol], the “% Moisture Absorption” value [1, 19] is reported as 0.000%, the “% Moisture Absorption” value [1, 20] is reported as 0.000% and the “% Moisture Absorption” value [1, 21] is reported as 0.000%. The “% Moisture Absorption” value [1, 22] was 0.000%, the “% Moisture Absorption” value [1, 3] was 0.008% and the “% Moisture Absorption” value [1, 4] was 0.011%. The “% Moisture Absorption” value [1, 5] was 0.014%, the “% Moisture Absorption” value [1, 6] was 0.010% and the “% Moisture Absorption” value [1, 23] was 0.012%. The “% Moisture Absorption” value [1, 8] was 0.055%, the “% Moisture Absorption” value [1, 9] was 0.070% and the “% Moisture Absorption” value [1, 10] was 0.070%. For the same compound, the “% Moisture Absorption” value [1, 11] was 0.070% and the “Hygroscopicity, result in words” value [1] was “least hygroscopic”.

In the case of `OC[C@H]1O[C@@H](O[C@H]2[C@H](O)[C@@H](O)C(O)O[C@@H]2CO)[C@H](O)[C@@H](O)[C@H]1O` (stereo partly shown) [Lactose 325M, Lactose], the “% Moisture Absorption” value [1, 19] is reported as 0.000%, the “% Moisture Absorption” value [1, 20] is reported as 0.000% and the “% Moisture Absorption” value [1, 21] is reported as 0.000%. For the same compound, the “% Moisture Absorption” value [1, 22] was 0.000%, the “% Moisture Absorption” value [1, 3] was 0.029% and the “% Moisture Absorption” value [1, 5] was 0.031%. The “% Moisture Absorption” value [1, 6] was 0.033%, the “% Moisture Absorption” value [1, 23] was 0.031% and the “% Moisture Absorption” value [1, 8] was 0.094%. For the same compound, the “% Moisture Absorption” value [1, 10] was 0.090%, the “% Moisture Absorption” value [1, 11] was 0.092% and the “% Moisture Absorption” value [1, 12] was 0.000%. For the same compound, the “% Moisture Absorption” value [1, 13] was 0.000%, the “% Moisture Absorption” value [1, 14] was 0.000% and the “% Moisture Absorption” value [1, 15] was 0.000%. The “% Moisture Absorption” value ([1]; Table 5, Humidity 75%, 16 Hours) was 0.029%, the “% Moisture Absorption” value [1, 16] was 0.031% and the “% Moisture Absorption” value [1, 17] was 0.033%. The “% Moisture Absorption” value [1, 18] was 0.031%.

For `C[C@H](NC(=O)[C@@H](Cc1ccc2ccccc2c1)NC(=O)[C@@H](C)N)C(=O)N[C@@H](Cc1c[nH]c2ccccc12)C(=O)N[C@H](Cc1ccccc1)C(=O)N[C@@H](CCCCN)C(N)=O` [Pralmorelin dihydrochloride, reference compound] (H-[dA][d2Nal]AW[dF]K-NH2), the “Residual and Distributed Fractions of Active Ingredient (%): Capsule” value [2] was 3.6%, the “Residual and Distributed Fractions of Active Ingredient (%): Inhaler device” value [2] was 11.5% and the “Residual and Distributed Fractions of Active Ingredient (%): Stage 0” value [2] was 7.7%. For the same compound, the “Residual and Distributed Fractions of Active Ingredient (%): Stage 1” value [2] was 26.6%.

With `OC[C@@H](O)[C@@H](O[C@H]1O[C@H](CO)[C@@H](O)[C@H](O)[C@H]1O)[C@H](O)[C@@H](O)CO` [Amalty] the “% Moisture Absorption” value [1, 3] was 0.478%, the “% Moisture Absorption” value [1, 4] was 1.138% and the “% Moisture Absorption” value [1, 5] was 1.171%. For the same compound, the “% Moisture Absorption” value [1, 6] was 1.252%, the “% Moisture Absorption” value [1, 7] was 0.775% and the “% Moisture Absorption” value [1, 8] was 0.971%. For the same compound, the “% Moisture Absorption” value [1, 9] was 2.513%, the “% Moisture Absorption” value [1, 10] was 3.373% and the “% Moisture Absorption” value [1, 11] was 8.391%.

In the case of `OC[C@@H](O)[C@@H](O)[C@H](O)[C@H](O)CO` [D-Mannitol], the “% Moisture Absorption” value [1, 3] is reported as 0.019%, the “% Moisture Absorption” value [1, 4] is reported as 0.019% and the “% Moisture Absorption” value [1, 5] is reported as 0.019%. For the same compound, the “% Moisture Absorption” value [1, 6] was 0.028%, the “% Moisture Absorption” value [1, 7] was 0.539% and the “% Moisture Absorption” value [1, 8] was 0.672%. The “% Moisture Absorption” value [1, 9] was 0.806%, the “% Moisture Absorption” value [1, 10] was 0.916% and the “% Moisture Absorption” value [1, 11] was 1.122%.

In the case of `OC[C@@H](O)[C@H](O)[C@@H](O)CO` [Xylitol], the “% Moisture Absorption” value [1, 19] is reported as 0.000%, the “% Moisture Absorption” value [1, 20] is reported as 0.000% and the “% Moisture Absorption” value [1, 21] is reported as 0.019%. The “% Moisture Absorption” value [1, 22] was 0.021%, the “% Moisture Absorption” value [1, 3] was 0.087% and the “% Moisture Absorption” value [1, 4] was 0.104%. The “% Moisture Absorption” value [1, 5] was 0.126%, the “% Moisture Absorption” value [1, 6] was 0.124% and the “% Moisture Absorption” value [1, 23] was 0.126%. The “% Moisture Absorption” value [1, 8] was 3.796%, the “% Moisture Absorption” value [1, 9] was 17.917% and the “% Moisture Absorption” value [1, 10] was “x”. For the same compound, the “% Moisture Absorption” value [1, 11] was “x”.
